Publication PMC10967972, “Different Coactivator Recruitment to Human PPARα/δ/γ Ligand-Binding Domains by Eight PPAR Agonists to Treat Nonalcoholic Fatty Liver Disease” (Biomedicines, 2024)
Read-outs that look alike come from different tables or passages of the source.

Tests used:
Format in all cases: biochemical
human PPARγ-LBD = target: T1, human PPARγ-LBD (Homo sapiens, UniProt P37231); test: TR-FRET coactivator recruitment assay, PPARγ-LBD
T1 construct: PPARγ-LBD (AAs 203–477 in isoform 1); made in house
T1 sequence (P37231 203-477 isoform P37231-2): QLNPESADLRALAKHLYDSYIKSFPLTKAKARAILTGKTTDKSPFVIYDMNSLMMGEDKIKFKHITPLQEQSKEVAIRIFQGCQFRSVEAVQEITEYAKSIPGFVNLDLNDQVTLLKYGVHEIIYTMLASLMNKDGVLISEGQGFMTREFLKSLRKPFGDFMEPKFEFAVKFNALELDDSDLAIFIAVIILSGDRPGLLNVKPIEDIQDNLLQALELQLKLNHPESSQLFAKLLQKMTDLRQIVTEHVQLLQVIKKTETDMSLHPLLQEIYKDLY

human PPARδ-LBD = target: T2, human PPARδ-LBD (Homo sapiens, UniProt Q03181); test: TR-FRET coactivator recruitment assay, PPARδ-LBD
T2 construct: PPARδ-LBD (AAs 170–441); made in house
T2 sequence (Q03181 170-441): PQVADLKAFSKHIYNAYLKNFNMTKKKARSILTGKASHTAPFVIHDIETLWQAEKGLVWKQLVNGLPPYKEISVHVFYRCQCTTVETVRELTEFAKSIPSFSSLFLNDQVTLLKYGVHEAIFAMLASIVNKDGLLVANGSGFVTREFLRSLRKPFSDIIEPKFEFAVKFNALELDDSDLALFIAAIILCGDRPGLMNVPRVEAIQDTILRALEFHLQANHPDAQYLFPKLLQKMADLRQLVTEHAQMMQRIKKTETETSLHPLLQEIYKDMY

human PPARα-LBD = target: T3, human PPARα-LBD (Homo sapiens, UniProt Q07869); test: TR-FRET coactivator recruitment assay, PPARα-LBD; design: extent of recruitment of all four coactivators to PPARα-LBD: reference not given here; details: for Approximate potency order in the recruitment of four coactivators, PPARα: evaluated based on EC50 values, PGC, PGC1α, SRC, SRC1, TRAP, TRAP220; for EC50: Buffer A
T3 construct: Human PPARα-LBD [amino acids (AAs) 200–468]; made in house
T3 sequence (Q07869 200-468): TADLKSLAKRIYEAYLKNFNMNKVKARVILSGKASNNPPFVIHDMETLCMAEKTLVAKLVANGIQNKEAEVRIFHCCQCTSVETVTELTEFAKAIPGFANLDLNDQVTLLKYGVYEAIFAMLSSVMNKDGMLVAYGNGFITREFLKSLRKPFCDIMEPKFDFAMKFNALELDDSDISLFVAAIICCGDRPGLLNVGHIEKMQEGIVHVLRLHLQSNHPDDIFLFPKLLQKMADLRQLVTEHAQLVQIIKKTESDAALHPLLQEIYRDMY

[1] = read-out: PPARγ CBP % of GW1929 max response
[2] = read-out: PPARγ PGC1α % of GW1929 max response
[3] = read-out: PPARγ SRC1 % of GW1929 max response
[4] = read-out: PPARγ TRAP220 % of GW1929 max response
[5] = read-out: PPARδ CBP % of GW501516 max response
[6] = read-out: PPARδ PGC1α % of GW501516 max response
[7] = read-out: PPARδ SRC1 % of GW501516 max response
[8] = read-out: PPARδ TRAP220 % of GW501516 max response
[9] = read-out: PPARα CBP % of GW7647 max response
[10] = read-out: PPARα PGC1α % of GW7647 max response
[11] = read-out: PPARα SRC1 % of GW7647 max response
[12] = read-out: PPARα TRAP220 % of GW7647 max response
[13] = CBP peptide recruitment, Buffer A, read-out: PPARγ CBP EC50
[14] = PGC1α peptide recruitment, Buffer A, read-out: PPARγ PGC1α EC50
[15] = SRC1 peptide recruitment, Buffer A, read-out: PPARγ SRC1 EC50
[16] = TRAP220 peptide recruitment, Buffer A, read-out: PPARγ TRAP220 EC50
[17] = evaluated based on EC50 values, PGC, PGC1α, SRC, SRC1, TRAP, TRAP220
[18] = CBP peptide recruitment, Buffer A, read-out: PPARδ CBP EC50
[19] = PGC1α peptide recruitment, Buffer A, read-out: PPARδ PGC1α EC50
[20] = SRC1 peptide recruitment, Buffer A, read-out: PPARδ SRC1 EC50
[21] = TRAP220 peptide recruitment, Buffer A, read-out: PPARδ TRAP220 EC50
[22] = CBP peptide recruitment, read-out: PPARα CBP EC50
[23] = PGC1α peptide recruitment, read-out: PPARα PGC1α EC50
[24] = SRC1 peptide recruitment, read-out: PPARα SRC1 EC50
[25] = TRAP220 peptide recruitment, read-out: PPARα TRAP220 EC50

SMILES	Emax (human PPARγ-LBD; [1]) [%]	Emax (human PPARγ-LBD; [2]) [%]	Emax (human PPARγ-LBD; [3]) [%]	Emax (human PPARγ-LBD; [4]) [%]	Emax (human PPARδ-LBD; [5]) [%]	Emax (human PPARδ-LBD; [6]) [%]	Emax (human PPARδ-LBD; [7]) [%]	Emax (human PPARδ-LBD; [8]) [%]	Approximate potency order in the recruitment of four coactivators, PPARα (human PPARα-LBD)	Emax (human PPARα-LBD; [9]) [%]	Emax (human PPARα-LBD; [10]) [%]	Emax (human PPARα-LBD; [11]) [%]	Emax (human PPARα-LBD; [12]) [%]	EC50 (human PPARγ-LBD; [13]) [µM]	Approximate potency order in the recruitment of four coactivators, PPARγ (human PPARγ-LBD; [17])	EC50 (human PPARδ-LBD; [18]) [µM]	EC50 (human PPARδ-LBD; [19]) [µM]	EC50 (human PPARδ-LBD; [20]) [µM]	EC50 (human PPARδ-LBD; [21]) [µM]	Approximate potency order in the recruitment of four coactivators, PPARδ (human PPARδ-LBD; [17])	other results
CC(C)(Oc1ccc(CCNC(=O)c2ccc(Cl)cc2)cc1)C(=O)O [Bezafibrate, bezafibrate]	68.7	68.6	34	55.7	64.6	90.3	50	85.8	CBP>PGC=TRAP>SRC	79.2	74.5	72.4	76.4	–	–	–	–	–	–	–	Approximate potency order in the recruitment of four coactivators, PPARγ (human PPARγ-LBD): PGC=CBP=TRAP>SRC; recruitment of coactivators to PPARγ-LBD (in words) (human PPARγ-LBD): recruited all four coactivators; EC50 (human PPARγ-LBD; PPARγ CBP EC50): 36.3 µM; EC50 (human PPARγ-LBD; PPARγ PGC1α EC50): 41.8 µM; EC50 (human PPARγ-LBD; PPARγ SRC1 EC50): 108 µM; EC50 (human PPARγ-LBD; PPARγ TRAP220 EC50): 24.5 µM; Approximate potency order in the recruitment of four coactivators, PPARδ (human PPARδ-LBD): TRAP>PGC>CBP>SRC; recruitment of coactivators to PPARδ-LBD (in words) (human PPARδ-LBD): recruited all four coactivators; EC50 (human PPARδ-LBD; PPARδ CBP EC50): 58.5 µM; EC50 (human PPARδ-LBD; PPARδ TRAP220 EC50): 24.5 µM; EC50 (human PPARδ-LBD; read-out: PPARδ PGC1α EC50): 35.8 µM; EC50 (human PPARδ-LBD; read-out: PPARδ SRC1 EC50): 101 µM; extent of recruitment of all four coactivators to PPARα-LBD (human PPARα-LBD): 72.4–79.2%; recruitment of coactivators to PPARα-LBD (in words) (human PPARα-LBD; four coactivator peptides): recruited all four coactivators
CCO[C@H](COc1ccc(C(F)(F)F)cc1)CSc1ccc(OCC(=O)O)c(C)c1 [Seladelpar, seladelpar]	45.9	49.8	11.9	20.5	120	113	146	136	CBP>PGC>SRC=TRAP	49.2	34.3	15.5	11	10.7	PGC=CBP>TRAP>SRC	0.0468	0.0317	0.0748	0.0607	PGC>CBP>SRC=TRAP	EC50 (human PPARγ-LBD; [14]): 4.98 µM; EC50 (human PPARγ-LBD; [15]): 22.4 µM; EC50 (human PPARγ-LBD; [16]): 13.6 µM; recruitment of coactivators to PPARδ-LBD (in words) (human PPARδ-LBD; four coactivator peptides): effective; EC50 (human PPARδ-LBD; range over PGC1α, CBP, SRC1, TRAP220, Buffer A, read-out: EC50 values on the four coactivators, PPARδ): 0.0317 to 0.0748 µM; extent of recruitment of four coactivators to PPARδ-LBD (human PPARδ-LBD; range over four coactivators, 100% = 0.1 µM GW501516): 113–146%; EC50 (human PPARα-LBD; [22]): 1.19 µM; EC50 (human PPARα-LBD; [23]): 2.05 µM; EC50 (human PPARα-LBD; [24]): 1.92 µM; EC50 (human PPARα-LBD; [25]): 1.84 µM
CC[C@@H](Oc1cccc(CN(CCCOc2ccc(OC)cc2)c2nc3ccccc3o2)c1)C(=O)O [Pemafibrate, pemafibrate]	80.3	50.8	27.7	82.5	74.6	91.1	58.6	77.3	CBP>PGC=SRC>TRAP	96.7	74.5	101	102	5.58	CBP=TRAP>PGC>SRC	8.64	4.75	14.9	7.48	PGC>CBP=TRAP>SRC	EC50 (human PPARγ-LBD; [14]): 8.02 µM; EC50 (human PPARγ-LBD; [15]): 13.8 µM; EC50 (human PPARγ-LBD; [16]): 5.59 µM; recruitment of coactivators to PPARδ-LBD (in words) (human PPARδ-LBD; four coactivator peptides): effective
CC(C)(Oc1ccc(C(=O)c2ccc(Cl)cc2)cc1)C(=O)O [Fenofibric acid, fenofibric acid]	73	82.5	42	64.8	0.45	0.16	0.6	2.76	CBP>TRAP>PGC>SRC	80.8	36.8	78.3	86	–	PGC=CBP=TRAP>SRC	> 500	> 500	> 500	> 500	No activation	EC50 (human PPARα-LBD; [22]): 3.41 µM; EC50 (human PPARα-LBD; [23]): 8.02 µM; EC50 (human PPARα-LBD; [24]): 11.1 µM; EC50 (human PPARα-LBD; [25]): 7.33 µM
